Data reported in patent US20110311601A1, “ANTIMICROBIAL MEDICAL DEVICES” (priority 2010, published 2011).
Where no end group is shown, it is not given here.

Columns and labels:
Assay in all cases: micro-dilution assay (MBC, LD90)
Assay type in all cases: cell-based
[1] = system: Citrobacter freundii BK 3796/00 (wild-type)
Experimental: (§1) The anti-bacterial activity of hβD2 was tested by a micro-dilution assay. Bacteria and fungi were streaked from a glycerol stock onto a Brain Heart Infusion (BHI) agar plate (3.7% w/v BHI Bouillon, 1.5% w/v Agar), grown overnight at 37° C. and 30° C., respectively and subsequently used to inoculate 40 ml of 3.7% w/v BHI Bouillon without any antibiotics in 100 ml flasks. Fresh cells were harvested by centrifugation at 16000 rpm for 10 min and washed twice with 10 mM sodium phosphate buffer, pH 7.2. The optical density was adjusted to 10^4 cells/ml. For anti-bacterial testing hβD2 was incubated in one well of a microtiter plate containing 100 μl of the bacterial suspension. Therefore, ten microlitres of hβD2 solution with a range of final concentrations tested from 0.0125 up to and including 100 mg/l was added to the bacterial suspension and incubated at 37° C. and 30° C., respectively for 2 h before colony forming units were determined. Colony forming units (CFU) were determined after plating 100 μl of a 1:100 dilution of the bacterial suspension on petri dishes with BHI medium and incubating them overnight at 37° C. For every group of the hβD2 added samples and the controls, 5 independent anti-bacterial assays were performed. A control (NC) of bacterial growth was examined for every independent assay. The number of CFU on the control (consisting of a single petri dish) was set to 0% bactericidal activity. The reduction in the CFU resulting from the anti-bacterial activity of hβD2 was related to the absolute CFU of the control within every independent assay. This value, given as a percentage of the bacterial “killing” activity, was used to describe the antibacterial activity. This kind of normalisation of the antibacterial data was performed for every experimental group.
(§2) The antibacterial activity of hβD2 were given either as minimum bactericidal concentration (MBC), i.e., the minimum concentration of hβD2 in μg/ml which is required to kill 99.9% of the bacteria or fungi or as lethal dose (LD90), i.e., the concentration of hβD2 in μg/ml which is lethal for 90% of bacteria or fungi.

[2] = system: Salmonella typhimurium ATCC 13311
Experimental: as §1, §2

[3] = system: Proteus mirabilis UR 1354/03 (wild-type)
Experimental: as §1, §2

[4] = system: Streptococcus mutans ATCC 35668
Experimental: as §1, §2

[5] = system: Serratia marcescens Mero 103/013 (wild-type)
Experimental: as §1, §2

[6] = system: Enterobacter aerogenes Va 12738/03 (wild-type)
Experimental: as §1, §2

[7] = system: Candida albicans C.a 46 (wild-type)
Experimental: as §1, §2

[8] = system: Proteus vulgaris Mero 103/067 (wild-type)
Experimental: as §1, §2

[9] = system: Enterobacter cloacae Va 11263/03 (wild-type)
Experimental: as §1, §2

[10] = system: Acinetobacter Genosp. 10 ATCC 17924
Experimental: as §1, §2

[11] = system: Enterococcus faecium (VRE) W 356 (wild-type)
Experimental: as §1, §2

[12] = system: Candida glabrata BK 9570/02 (wild-type)
Experimental: as §1, §2

[13] = system: Candida glabrata Va 27966/02 (wild-type)
Experimental: as §1, §2

[14] = system: Helicobacter pylori ATCC 49503
Experimental: as §1, §2

[15] = system: Enterococcus faecium (VRE) W 354 (wild-type)
Experimental: as §1, §2

[16] = system: Candida albicans ATCC 24433
Experimental: as §1, §2

[17] = system: E. coli (ESBI 4) Va 10866/02 (wild-type)
Experimental: as §1, §2

[18] = system: Klebsiella pneumoniae ATCC 13883
Experimental: as §1, §2

[19] = system: Aeeromonas hydrophila ATCC 7966
Experimental: as §1, §2

[20] = system: Pseudomonas aeruginosa ATCC 10145
Experimental: as §1, §2

[21] = system: Proteus mirabilis (ESBL 8) (wild-type)
Experimental: as §1, §2

[22] = system: E. coli (ESBL 1) UR 2884/99 (wild-type)
Experimental: as §1, §2

[23] = system: E. coli (ESBL 9) UR 2217/03 (wild-type)
Experimental: as §1, §2

[24] = system: Saccharomyces cerevisiae ATCC 9763
Experimental: as §1, §2

[25] = system: Serratia marcescens Mero 060/148 (wild-type)
Experimental: as §1, §2

[26] = system: Fusobacterium nucleatum ATCC 10953
Experimental: as §1, §2

In the case of “human β-defensin-2 (GIGDPVTCLKSGAICHPVFCPRRYKQIGTCGLPGTKCCKKP; ends and bridges not checked; cysteine pairing not given here) [hβD2, recombinant hβD2]”, the “LD 90 = μg/ml 90% killing” value [1] is reported as 3.125 µg/mL, the “MBC = μg/ml 99.9% killing” value [1] is reported as 6.25 µg/mL and the “LD 90 = μg/ml 90% killing” value [2] is reported as 1.56 µg/mL. For the same substance, the “MBC = μg/ml 99.9% killing” value [2] was 6.25 µg/mL, the “LD 90 = μg/ml 90% killing” value [3] was 100 µg/mL and the “MBC = μg/ml 99.9% killing” value [3] was >100 µg/mL. The “LD 90 = μg/ml 90% killing” value [4] was 100 µg/mL, the “MBC = μg/ml 99.9% killing” value [4] was >100 µg/mL and the “LD 90 = μg/ml 90% killing” value [5] was 100 µg/mL. For the same substance, the “MBC = μg/ml 99.9% killing” value [5] was >100 µg/mL, the “LD 90 = μg/ml 90% killing” value [6] was 6.25 µg/mL and the “MBC = μg/ml 99.9% killing” value [6] was 25 µg/mL. For the same substance, the “LD 90 = μg/ml 90% killing” value [7] was 6.25 µg/mL, the “MBC = μg/ml 99.9% killing” value [7] was 25 µg/mL and the “LD 90 = μg/ml 90% killing” value [8] was 100 µg/mL. The “MBC = μg/ml 99.9% killing” value [8] was >100 µg/mL, the “LD 90 = μg/ml 90% killing” value [9] was 12.5 µg/mL and the “MBC = μg/ml 99.9% killing” value [9] was 50 µg/mL. The “LD 90 = μg/ml 90% killing” value [10] was 0.39 µg/mL, the “MBC = μg/ml 99.9% killing” value [10] was 1.56 µg/mL and the “LD 90 = μg/ml 90% killing” value [11] was 50 µg/mL. For the same substance, the “MBC = μg/ml 99.9% killing” value [11] was 100 µg/mL, the “LD 90 = μg/ml 90% killing” value [12] was >100 µg/mL and the “MBC = μg/ml 99.9% killing” value [12] was >100 µg/mL. The “LD 90 = μg/ml 90% killing” value [13] was 12.5 µg/mL, the “MBC = μg/ml 99.9% killing” value [13] was >100 µg/mL and the “LD 90 = μg/ml 90% killing” value [14] was 12.5 µg/mL. The “MBC = μg/ml 99.9% killing” value [14] was 50 µg/mL, the “LD 90 = μg/ml 90% killing” value [15] was 50 µg/mL and the “MBC = μg/ml 99.9% killing” value [15] was 100 µg/mL. The “LD 90 = μg/ml 90% killing” value [16] was 3.125 µg/mL, the “MBC = μg/ml 99.9% killing” value [16] was 25 µg/mL and the “LD 90 = μg/ml 90% killing” value [17] was 3.125 µg/mL. For the same substance, the “MBC = μg/ml 99.9% killing” value [17] was 12.5 µg/mL, the “LD 90 = μg/ml 90% killing” value [18] was 12.5 µg/mL and the “MBC = μg/ml 99.9% killing” value [18] was 25 µg/mL. For the same substance, the “LD 90 = μg/ml 90% killing” value [19] was 100 µg/mL, the “MBC = μg/ml 99.9% killing” value [19] was >100 µg/mL and the “LD 90 = μg/ml 90% killing” value [20] was 6.25 µg/mL. The “MBC = μg/ml 99.9% killing” value [20] was 12.5 µg/mL, the “LD 90 = μg/ml 90% killing” value [21] was 100 µg/mL and the “MBC = μg/ml 99.9% killing” value [21] was >100 µg/mL. The “LD 90 = μg/ml 90% killing” value [22] was 3.125 µg/mL, the “MBC = μg/ml 99.9% killing” value [22] was 12.5 µg/mL and the “LD 90 = μg/ml 90% killing” value [23] was 12.5 µg/mL. For the same substance, the “MBC = μg/ml 99.9% killing” value [23] was 25 µg/mL, the “LD 90 = μg/ml 90% killing” value [24] was 3.125 µg/mL and the “MBC = μg/ml 99.9% killing” value [24] was 25 µg/mL. The “LD 90 = μg/ml 90% killing” value [25] was 50 µg/mL, the “MBC = μg/ml 99.9% killing” value [25] was 100 µg/mL and the “LD 90 = μg/ml 90% killing” value [26] was 3.125 µg/mL. The “MBC = μg/ml 99.9% killing” value [26] was 3.125 µg/mL.
